Data on four molecules can be found in patent publication US20080039531A1, “Compositions, and kits comprising targeted aldehyde or acetal protease inhibitor compounds for treating muscle disorders” (priority 2005, published 2008).

“And” between values parts separate entries of the source, which are not always exact repeats. Equal values may be shown once. Read-outs that look alike come from different tables or passages of the source.

Data set [1] in a line: Qualitative oral bioavailability of CLA acetal in the rat (plasma). The settings on record: for Estimated Plasma Concentration of CLA acetal / Estimated Plasma Concentration of CLA aldehyde: rat plasma.
Description: This experiment was designed to measure in a qualitative manner the oral bioavailability of CLA acetal in rats. Four Lewis strain normal male rats, 9 weeks of age were administered a single dose of 50 mg/kg of the acetate salt of the CLA acetal compound, using a single oral gavage. […] The blood samples were immediately centrifuged at 3000 rpm for 3-5 minutes to separate plasma from cells and the plasma and cells were frozen separately by immersion in liquid nitrogen and storage in a −20° C. freezer.
The aldehyde and acetal forms of CLA were then extracted from the plasma using a Bligh Dyer-type liquid phase extraction followed by solid-phase extraction using a reverse phase column. The relative amounts of CLA acetal and aldehyde were then measured using HPLC separation with mass spectrometric detection, using an electrospray ionization source and a Micromass Qtof detector.
A short description of data set [2]: Single-dose oral rat toxicology study of CLA acetal. Type of data set: in vivo, Sprague Dawley rats. The settings on record: rats, oral gavage, 250, 1000, 2000 mg/kg, up to 24 hours after dosing. Here is the method: Sprague Dawley rats were administered single doses of CLA acetal by oral gavage at 7-8 weeks of age. Each group received a single oral dose level of CLA acetal, ranging in amount from 0 to 2000 mg/kg. The vehicle consisted of Dulbecco's phosphate-buffered saline.

Data set [3] in a line: Conversion of CLA acetal to aldehyde using acid (HPLC). The data set is classed as physicochemical. The settings on record: 5 mg/mL in water. The protocol:
Solutions of CLA diethyl acetal in water were prepared at a concentration of 5 mg/mL and the pH was adjusted to values shown in Table 8 using concentrated hydrochloric acid. Each solution was incubated at different times at room temperature. Samples were removed at each time point and quenched using basic phosphate buffer, yielding a final pH of 9. The quenched samples were analyzed using an Agilent 1100 HPLC system. The aldehyde was chromatographically separated from the acetal on a C18 reverse-phase HPLC column, using a linear gradient where the starting mobile phase was 0.1% trifluoroacetic acid in a 99:1 water:acetonitrile mixture and the final mobile phase was 0.1% trifluoroacetic acid in a 50:50 water:acetonitrile mixture. The absorbance at 220 nm was monitored, and the area of the peak corresponding to elution of the CLA diethyl acetal was computed.

A short description of data set [4]: Uptake and conversion of CLA acetal in rat gastrocnemius muscle. The data set is classed as in vivo. The protocol: This experiment was designed to measure the uptake of CLA acetal in rat gastrocnemius muscle and to detect conversion of CLA acetal to CLA as it occurs in rat muscle. […] At different times following administration of drug, each rat was sacrificed, the left and right gastrocnemius muscles were dissected from the rat, and the muscles were frozen by immersion in liquid nitrogen and storage in a −80° C. freezer.
The muscle tissues were thawed and homogenized using a blender.

Data set [5] deals with calpain. The settings on record: RD muscle cells.
Excerpt: This study was designed to measure the effect of CLA, a calpain inhibitor, upon calpain activity inside living muscle cells. […] Full length alpha-II spectrin has a molecular weight of approximately 250 kilodaltons; upon cleavage by calpain, calpain-specific spectrin breakdown products with molecular weights of approximately 150 and 145 kilodaltons, respectively, are generated sequentially. Human RD muscle cells are a rhabdomyosarcoma muscle cell line that expresses OCTN2, a transporter for carnitine. By monitoring the reduction in spectrin breakdown products caused by calpain inhibition in RD muscle cells, it is possible to measure the potency of inhibitors according to the extent to which they reduce the appearance of calpain-specific spectrin breakdown products.
In the experiment, Rd muscle cells were incubated with either CLA or leupeptin for 1 hour. 1 nM maitotoxin was added to the cells to stimulate calcium influx and calpain activation. The cells were incubated for another 60 minutes. The cells were then lysed in phosphate buffer containing 1% Triton X-100 and a protease inhibitor cocktail. The lysed samples were centrifuged and the supernatants were collected. The protein concentration in each supernatant was measured using a standard assay. 20 micrograms of each sample was electrophoresed on a 4% Tris-glycine polyacrylamide gel. […]
Data set [6] has as its system rat hind limb muscle (sciatic nerve denervation). The settings on record: for % loss (muscle atrophy due to denervation): rat.
Description: Denervation was carried out on one of the hind limb sciatic nerves of the rat. Denervation was allowed to proceed for 7 days. Either leupeptin or CLA was injected 2×/day in forelimb muscle for seven days. The non-denervated hind limb was used as the control. Leupeptin and/or CLA were injected into alternating forelimb muscles for a period of seven days after which, animals were sacrificed, muscles excised and weighed.
The subject of the next data set is mdx mice. The settings on record: for Myofiber diameter (Gastrocnemis) / Myofiber diameter, Diaphragm: injected parenterally daily from one to two months. Here is the method:
CLA was injected parenterally daily at the indicated concentrations into mdx mice from one to two months. Mdx control mice were injected with saline alone. At two months, the animals were sacrificed and indicated muscles removed, fixed, and stained for myofiber diameter analysis.

For data set [7] the following is noted: rats.
Description: In a pilot toxicology study, two groups of 2 male and 2 female Sprague-dawley rats each were administered intravenous bolus doses of 250 and 500 mg/kg CLA. […] In a larger, follow-up study (Table 11), Sprague-Dawley rats were administered several lower doses of CLA intravenously at 7-8 weeks of age. The rats were divided into 4 groups consisting of equal numbers of male and female rats. […] The vehicle consisted of Dulbecco's phosphate-buffered saline.
For data set [8] the following is noted: rats, various doses.
Data set [9] deals with calpain. The settings on record: rats, IP, muscle isolated after 2 hours. Here is the method: An initial series of toxicology experiments was performed in rats to assess the effect of CLA at various doses, on animal viability. […] A series of experiments to examine the ability of CLA vs. leupeptin to decrease activated calpain levels and inhibit muscle wasting was conducted. In the experiment shown in Table 4, rats were utilized to assess the effect of IP injection of either leupeptin or CLA into the hind limb muscle on their ability to inhibit calpain activity. To this end, four rats were injected IP with either leupeptin or CLA. After 2 hours, the muscle was isolated, homogenized, and assayed for remaining calpain activity by the standard assay.

In a further data set the target is porcine kidney calpain 2 (Sus scrofa, UniProt I3LQD3). In words: Enzymatic calpain assay with fluorogenic substrate. Type of data set: biochemical. The settings on record: porcine kidney calpain 2, 37° C., 10 mM calcium chloride. The source says: The α-carbon stereocenter adjacent to the aldehyde group of CLA can be prepared in a “natural” L or “unnatural” D configuration. It is known however that enolization of such aldehydes can easily occur during synthesis, storage, or administration of such peptide aldehydes to patients, with the result that the α-carbon stereocenter undergoes racemization. To investigate the relative biological activity of the optical isomers of CLA, the pure form of both the L-argininal diethyl […] diethyl acetal forms of CLA were prepared via the method described in Example 11 below using both L and D enantiomers of the […] starting materials. […] Slopes were calculated for the initial phase of each reaction and the ratios of velocities for each compound concentration (Vi) to the uninihibited reaction velocity (V0) were calculated, plotted, and fitted to a rectangular hyperbola using the program Kaleidagraph (Synergy software). […] An increase in enzyme activity appears to occur at intermediate concentrations of the D-isomer (Panel B.). This increase may be due to weak binding at an allosteric site that is not inhibitory the enzyme.
Sequence of porcine kidney calpain 2 (P04574 whole entry): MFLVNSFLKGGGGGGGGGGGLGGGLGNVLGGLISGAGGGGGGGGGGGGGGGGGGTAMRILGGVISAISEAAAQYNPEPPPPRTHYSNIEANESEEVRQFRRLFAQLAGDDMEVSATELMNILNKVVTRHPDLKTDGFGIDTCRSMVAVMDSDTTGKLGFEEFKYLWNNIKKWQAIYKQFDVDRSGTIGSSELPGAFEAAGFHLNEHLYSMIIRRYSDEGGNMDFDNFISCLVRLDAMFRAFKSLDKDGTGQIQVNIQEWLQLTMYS
Sequence of porcine kidney calpain 2 (I3LQD3 entry or part of it): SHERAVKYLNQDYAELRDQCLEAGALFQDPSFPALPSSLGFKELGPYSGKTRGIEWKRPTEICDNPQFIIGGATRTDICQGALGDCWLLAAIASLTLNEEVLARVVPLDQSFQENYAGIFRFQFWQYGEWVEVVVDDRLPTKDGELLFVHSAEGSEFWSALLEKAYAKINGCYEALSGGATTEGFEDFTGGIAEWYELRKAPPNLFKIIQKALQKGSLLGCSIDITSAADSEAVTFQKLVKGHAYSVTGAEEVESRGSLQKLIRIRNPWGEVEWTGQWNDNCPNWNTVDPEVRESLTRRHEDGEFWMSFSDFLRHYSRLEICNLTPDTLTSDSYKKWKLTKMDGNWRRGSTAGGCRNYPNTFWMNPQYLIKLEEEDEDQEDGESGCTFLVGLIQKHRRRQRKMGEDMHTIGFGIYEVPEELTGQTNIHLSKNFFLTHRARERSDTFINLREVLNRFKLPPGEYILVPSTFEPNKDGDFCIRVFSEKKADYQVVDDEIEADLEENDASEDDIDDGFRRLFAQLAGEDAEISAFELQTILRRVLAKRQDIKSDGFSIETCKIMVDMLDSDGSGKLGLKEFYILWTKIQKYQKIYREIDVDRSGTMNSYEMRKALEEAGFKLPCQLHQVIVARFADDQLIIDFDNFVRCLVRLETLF

[10] abbreviates: 45 minutes after single oral gavage of 50 mg/kg CLA acetal acetate salt, single rat.
Setting [11] is: rat left gastrocnemius, 2 hours after oral 50 mg/kg CLA acetal acetate salt.
The mark [12] stands for this setting: rat right gastrocnemius, 6 hours after oral 50 mg/kg CLA acetal acetate salt.
Setting [13] is: rat right gastrocnemius, 8 hours after oral 50 mg/kg CLA acetal acetate salt, one line per rat, 50 mg/kg.

In the case of `CC(=O)O.CCOC(OCC)[C@H](CCCNC(=N)N)NC(=O)[C@H](CC(C)C)NC(=O)CCC(=O)N[C@H](CC(=O)[O-])C[N+](C)(C)C` [CLA acetal, aminocarnityl-succinyl-leucyl-argininal diethyl acetal], the “Estimated Plasma Concentration of CLA acetal” value in data set [1] (setting [10]) is 5,840 ng/mL; in data set [1] (60 minutes after single oral gavage of 50 mg/kg CLA acetal acetate salt, one line per rat, 50 mg/kg), 970 ng/mL and 8240 ng/mL and 51200 ng/mL. Further, the oral absorption result in [1] (rats, 50 mg/kg oral gavage) was “absorbed intact”. Besides, the “toxicity after single oral dose” value in [2] was “No evidence of toxicity”. Also, the Percent acetal remaining in data set [3] (pH = 0, room temperature, activation time 0 min) is recorded as 100.0%; in [3] (pH = 0, room temperature, activation time 5 min), 80.0%; in data set [3] (pH = 0, room temperature, activation time 15 min) it was 28.5%; in data set [3] (pH = 0, room temperature, activation time 30 min), 11.2%; in data set [3] (pH = 0, room temperature, activation time 45 min) it was 11.3%; in data set [3] (pH = 0, room temperature, activation time 60 min), 11.3%. Further, the Percent acetal remaining was found to be 9.0% in [3] (pH = 0, room temperature, activation time 90 min); 10.9% in data set [3] (pH = 0, room temperature, activation time 120 min); 9.3% in [3] (pH = 0, room temperature, activation time 240 min); 9.1% in data set [3] (pH = 0, room temperature, activation time 1440 min); 100.0% in data set [3] (pH = 1.0, room temperature, activation time 0 min); 100.6% in [3] (pH = 1.0, room temperature, activation time 5 min). The Percent acetal remaining in [3] (pH = 1.0, room temperature, activation time 15 min) was found to be 97.3%; in data set [3] (pH = 1.0, room temperature, activation time 30 min) it was 92.2%; in [3] (pH = 1.0, room temperature, activation time 45 min), 86.9%; in data set [3] (pH = 1.0, room temperature, activation time 60 min), 81.7%; in data set [3] (pH = 1.0, room temperature, activation time 90 min), 72.7%; in data set [3] (pH = 1.0, room temperature, activation time 120 min), 64.8%. Besides, the Percent acetal remaining amounted to 42.2% in data set [3] (pH = 1.0, room temperature, activation time 240 min) and 6.4% in data set [3] (pH = 1.0, room temperature, activation time 1440 min). In addition, the “Muscle concentration of prodrug” value in [4] (setting [11]) is 37.4 ng per gram; in data set [4] (setting [12]) it was 9.7 ng per gram; in data set [4] (setting [13]), 10.3 ng per gram and 9.2 ng per gram.
With `CC(C)C[C@H](NC(=O)CCC(=O)N[C@H](CC(=O)O)C[N+](C)(C)C)C(=O)N[C@H](C=O)CCCNC(=N)N.Cl.[Cl-]` [CLA, aminocarnityl-succinyl-leucyl-argininal], the “Estimated Plasma Concentration of CLA aldehyde” value was below 20 ng/mL in [1] (setting [10]); <20 ng/mL (2×) and 72 ng/mL in data set [1] (60 minutes after single oral gavage of 50 mg/kg CLA acetal acetate salt, one line per rat, listed as CLA aldehyde, 50 mg/kg). Further, the “fold lower IC50 than leupeptin” value with calpain [5] is listed as “approximately 200 fold”. The “% loss (muscle atrophy due to denervation)” value in [6] (1.0 mg/kg injected 2x/day for seven days) was 5.2 ± 1%; in data set [6] (3.0 mg/kg injected 2x/day for seven days), below 1.0%; in data set [6] (6.0 mg/kg injected 2x/day for seven days), below 1.0%. Besides, the “health / toxic effect in denervation study” value in data set [6] (rats, seven days of injections) was “remained healthy without any apparent negative toxic effect”. The entries for the “Myofiber diameter (Gastrocnemis)” value with mdx mice (5 mg) and with mdx mice (10 mg) were 28.7 ± 7 mm and 30.6 ± 11 mm, respectively. Besides, the “Myofiber diameter, Diaphragm” value in the data set on mdx mice (5 mg) came to 25.1 ± 7.3 mm; in the data set on mdx mice (10 mg) it was 25.4 ± 7.3 mm. The “effectiveness relative to leupeptin alone” value in the data set on mdx mice (retention of muscle size) is “at least five to seven times more effective”. In addition, the lethality entry in data set [7] (intravenous bolus, 500 mg/kg) is recorded as “lethal”. In data set [7] (single intravenous dose), this molecule registered a maximum tolerated dose of 200 mg/kg. The “no adverse effect limit (NOAEL)” value in data set [7] (single intravenous dose) was found to be 100 mg/kg. Moreover, the toxicity entry in data set [7] (single intravenous dose, 50 and 100 mg/kg) is given as “No toxicity”. In data set [8], the “toxic effect on animal viability” value was “No toxic effect”. The “% inhibition of muscle calpain activity” value with calpain [9] (14 μmoles) stood at 48%. For the same molecule, the “% inhibition/μmole” value in the data set with calpain [9] worked out at 3.5%. Besides, the “Fold (effectiveness per μmole relative to leupeptin)” value in the data set with calpain [9] is 13.5. Besides, the “Muscle concentration of active drug” value is 124.6 ng per gram in [4] (setting [11]); 683.6 ng per gram in data set [4] (setting [12]); 758.4 ng per gram and 330.8 ng per gram in data set [4] (setting [13]). For the same molecule, the “Percent of drug present as the active form” value is 76.9% in [4] (setting [11]); 98.6% in data set [4] (setting [12]); 98.7% and 97.3% in data set [4] (setting [13]).
`CC(C)CC(NC(=O)CCC(=O)NC(CC(=O)[O-])C[N+](C)(C)C)C(=O)NC(C=O)CCCNC(=N)N` [D-isomer]: the IC50 at porcine kidney calpain 2 (FIG. 7 Panel B) was above 100000 nM.
Regarding `CC(C)CC(NC(=O)CCC(=O)NC(CC(=O)[O-])C[N+](C)(C)C)C(=O)NC(C=O)CCCNC(=N)N` [L-isomer of CLA], the IC50 on porcine kidney calpain 2 (FIG. 7 Panel A) was 500 to 1000 nM.
